Test results: US20040265323A1, “Compositions comprising pathogen elicited epithelial chemoattractant (eicosanoid hepoxilin A3), inhibitors thereof and methods of use thereof” (priority 2003, published 2004)
Entries after “also recorded” stand apart in the source; their conditions may differ.

Experiments:
Assay type in all cases: cell-based, human
[1] = system: PMN transmigration across T84 cell monolayers; experiment: PMN transepithelial migration to imposed gradients of lipids across T84 monolayers; conditions: imposed gradients across T84 cell monolayers, basolateral-to-apical
Method: Crude preparations of PEEC were collected from the apical surface of polarized T84 cell monolayers following infection with S. typhimurium SL1344 as previously described (McCormick et al., 1998). For these experiments, T84 intestinal epithelial cells (passages 45 to 65) were grown in a 1:1 mixture of Dulbecco-Vogt modified Eagles medium and Ham's F-12 medium supplemented with 15 mM Hepes buffer (pH 7.5), 14 mM NaHCO3, 40 mg/liter penicillin, 8 mg/liter ampicillin, 90 mg/liter streptomycin and 5% newborn calf serum. Polarized monolayers of T84 cells were formed and maintained on 0.33 cm^2 ring-supported collagen-coated polycarbonate filters (Costar Corp., Cambridge, Mass.) as previously described (Madara et al., 1992) with recently detailed modifications (Dharmsathaphorn and Madara, 1990). T84 cell monolayers reached a steady-state resistance 4 to 6 days after plating with some variability largely related to cell passage number. Cell culture inserts of inverted monolayers, used to study transmigration of PMN in the physiological basolateral-to-apical direction, were constructed as previously described (Madara et al., 1992; Dharmsathaphorn and Madara, 1990; Nash et al., 1991).
(§1) It was further examined if hepoxilin A3 acts in a gradient fashion to drive PMN migration from the basolateral to the apical epithelial surface. For these experiments, the physiologically directed (basolateral-to-apical) PMN transepithelial migration assay using cell culture inserts of inverted T84 monolayers has been used (McCormick et al., 1993; Parkos et al., 1992). Human PMN were isolated from normal volunteers, as described elsewhere (Parkos et al., 1992; Henson and Oades, 1975). PMN transmigration results were represented as PMN cell equivalents (CE) derived from a daily standard PMN dilution curve. PMN which completely traversed the monolayer were represented as the number of PMN (CE/ml in a total volume of 1 ml). Values were expressed as the mean and SD of an individual experiment done in triplicate repeated at least 3 times.
Arachidonic acid is the initial substrate used by a variety of metabolic pathways involving lipoxygenase (LO) activities—enzymes that add hydroxyl groups at specific carbon atoms of this 20-carbon fatty acid. […] Therefore, in addition to hepoxilin A3, a wide range of arachidonic acid metabolites for their ability to incite the transmigration of PMNs across T84 monolayers in vitro was examined (Table 1). […] This is consistent with previous reports that LTB4 is capable of inducing PMN transmigration.

PMN [2] = experiment: PMN intracellular Ca2+ mobilization; conditions: 5 μg/ml, FIG. 4B
Source text: Further, crude PEEC preparations were collected from postinfected T84 cells monolayers. Samples were first passed through an Amicon ultra-filtration apparatus (Millipore Corp.; Bedford, Mass.) fitted with a 2,000 Da cut-off membrane. Filtrate components were bound to a Backerbond spe™ octadecyl extraction column (J. T. Baker; Philipsburg, N.J.) that was subsequently eluted with water, hexane, and finally methanol. The methanol fraction was dried under vacuum and resuspended in 50:50 (vol:vol) methanol:2 mM Tris HCl (pH 7.5) and injected onto a Vydac C18 (10 μm; 300 Å) semi-preparative column ([…]) equilibrated with 2 mM Tris-HCl (pH 7.5). A methanol gradient of 1-10% over 10 minutes, then 10-60% over 25 minutes, followed by 60-100% over 45 minutes (all at room temperature) was used to isolate active PEEC fractions. Active fractions, having no detectable absorbance at 280 nm and weak absorbance at 214 nm, were analyzed using a Genesis C18 (4 μm, 120 Å) analytical HPLC column (4.6×150 mm) equilibrated with 5 mM triethylamine/acetic acid (pH 7.2). […] (FIG. 2A and B).
(§2) To substantiate the notion that hepoxilin A3 was in fact the molecule responsible for PEEC bioactivity, it was examined whether synthetic hepoxilin A3 (BIOMOL, Plymouth Meeting, Pa.) could recapitulate PEEC bioactivity. […] Thus, authentic hepoxilin A3 recapitulates all known aspects of PEEC bioactivity consistent with the notion that hepoxilin A3 is in fact PEEC's active component.

PMN [3] = experiment: PMN degranulation assessed by elastase release
Source text: as §2

[4] = system: S. typhimurium-induced PMN transepithelial migration, T84 cells; experiment: Inhibition of S. typhimurium-induced PMN transepithelial migration across T84 monolayers; conditions: for inhibition of S. typhimurium-induced PMN transepithelial migration: T84 incubated 1 hour with inhibitor, FIG. 9
Source text: as §1, with “PMN transmigration results were represented as PMN cell equivalents (CE) derived from a daily standard PMN dilution curve.” left out
Hepoxilin A3 is formed via the 12-lipoxygenase (LO) metabolism pathway of arachidonic acid. Therefore, the involvement of the 12-LO pathway in the ability of the enteric pathogen, S. typhimurium, to induce PMN transepithelial migration and elicit PEEC secretion was tested. […] For 12-LO inhibition, HBSS(+)-washed T84 cell monolayers were incubated in the presence baicalein [stock concentration at 1 mM in DMSO] for 48 hours at 37° C. Subsequently, S. typhimurium SL1344 was added to the apical surface of the T84 monolayers and after an incubation of 1 hour at 37° C., the cells were washed free of non-adherent bacteria and then processed for the PMN transmigration assay. […] For 5-LO inhibition, the T84 cells were washed with HBSS(+) and then were incubated for 24 hours in the presence of caffeic acid (stock concentration at 22 mM in DMSO). Both inhibitors were purchased form Biomol, Plymouth Meeting, Pa.
In each instance, the T84 cell monolayers were incubated for […] in the presence of the inhibitor prior to the addition of S. typhimurium.

IL-8 secretion = IL-8 secretion by S. typhimurium infected T84 cell monolayers; conditions: S. typhimurium infected T84, caffeic acid 22 μM
[5] = system: PEEC/hepoxilin A3 secretion; experiment: Apical PEEC/hepoxilin A3 release from S. typhimurium infected T84 cell monolayers
Source text: T84 cell monolayers were infected with S. typhimurium in the absence or presence of the 12-LO enzyme inhibitor and apical supernatants were examined for PEEC bioactivity. […] Moreover, since it had been previously shown that S. typhimurium via its effector SipA initiates an ARF6-dependent lipid-signaling cascade that directs the activation of PKC and release of PEEC, it was further examined if blocking PKC activity (which would occur upstream of 12-LO) also corresponds with a reduction in hepoxilin A3 bioactivity and release, as one would predict.

| Compound | PMN transepithelial migration (PEEC activity) induced by added lipid [1] | also measured |
| --- | --- | --- |
| CCCCC/C=C\C[C@@H](O)/C=C/C=C/C=C/[C@@H](O)CCCC(=O)O (relative stereo) [trans LTB4] | failed to support events observed with hepoxilin A3 | – |
| CCCCC/C=C\C/C=C\C/C=C\C=C\C(=O)CCCC(=O)O [5-KETE] | failed to effect a transmigration of PMNs | – |
| CCCCC/C=C\C[C@@H](O)/C=C/C=C\C/C=C\CCCC(=O)O [12(R)-HETE] | no PMN transmigration activity was observed | intracellular Ca2+ in PMN (PMN [2]): failed to cause an increase in Ca^2+ mobilization |
| CCCCC/C=C\C[C@H](O)/C=C/C=C\C/C=C\CCCC(=O)O [12(S)-HETE] | no PMN transmigration activity was observed | – |
| CCCCC[C@H](O)/C=C/C=C\C/C=C\C/C=C\CCCC(=O)O [15(S)-HETE] | only a low activity of PMN transmigration was observed | – |
| CCCCC/C=C\C/C=C\C/C=C\C/C=C\CCCC(=O)O [Arachidonic acid] | could enhance the amount of PMN transmigration | – |
| CCCCC/C=C\C[C@@H](O)/C=C/C=C/C=C\[C@@H](O)CCCC(=O)O [LTB4] | – | PMN degranulation (PMN [3]): causes activation and degranulation |
| O=C(O)/C=C/c1ccc(O)c(O)c1 [caffeic acid] | – | S. typhimurium-induced PMN transepithelial migration with lipoxygenase inhibitor ([4]; T84 pre-treated: baicalein 48 hours, caffeic acid 24 hours): failed to prevent S. typhimurium-induced PMN transepithelial migration; also recorded: no inhibition; IL-8 secretion (IL-8 secretion): 558 ± 26 pg/mL |
| COc1ccc2c(c[n+](C)c3c4cc5c(cc4ccc23)OCO5)c1OC.[Cl-] [chelerethyrine chloride] | – | PEEC/hepoxilin A3 release ([5]; 5 μM prior to infection with wild-type S. typhimurium): < 1.0 pmol |
| C=C(CC)C(=O)c1ccc(OCC(=O)O)c(Cl)c1Cl [ethacrynic acid] | – | inhibition of S. typhimurium-induced PMN transepithelial migration [4]: significantly inhibited |
| CCCCC/C=C\C[C@@H]1O[C@H]1C(O)/C=C\C/C=C\CCCC(=O)O (stereo partly shown) [hepoxilin B3] | inactive; also recorded: failed to support events observed with hepoxilin A3 | – |
| CCCCC/C=C\C/C=C\CCCCCCCC(=O)O [linoleic acid] | failed to demonstrate any PEEC activity | – |
| CCCN(CCC)S(=O)(=O)c1ccc(C(=O)O)cc1 [probenecid] | – | inhibition of S. typhimurium-induced PMN transepithelial migration [4]: significantly inhibited |
| CC[C@]1(O)C[C@@H]2CN(CCc3c([nH]c4ccccc34)[C@@](C(=O)OC)(c3cc4c(cc3OC)N(C)[C@H]3[C@@](O)(C(=O)OC)[C@H](OC(C)=O)[C@]5(CC)C=CCN6CC[C@]43[C@@H]65)C2)C1 [vinblastine] | – | inhibition at 0.0005 µM ([5]; Homo sapiens, ~0.5 nM, pathogen-induced, T84, read-out: inhibition of hepoxilin A3 secreted): ~60% |
